Measurements taken from ChEMBL document CHEMBL2046440, “C-Aryl 5a-carba-β-d-glucopyranosides as novel sodium glucose cotransporter 2 (SGLT2) inhibitors for the treatment of type 2 diabetes” (Bioorg Med Chem, 2012).
Calls of active or inactive are those of the source. No cut-off for these calls is given here.

Columns and labels:
[1] = target: T1, Cytochrome P450 3A4 (Homo sapiens, UniProt P08684); test: Inhibition of CYP3A4 using BFC substrate in which compound added to reaction mixture before addition of BFC substrate by fluorometric assay; type: ADME
[2] = target: T1, Cytochrome P450 3A4; test: Inhibition of CYP3A4 using BFC substrate in which compound added to reaction mixture simultaneously with BFC substrate by fluorometric assay; type: ADME
[3] = target: T2, Sodium/glucose cotransporter 2 (Homo sapiens, UniProt P31639); test: Inhibition of human SGLT2 expressed in CHO-K1 cells by [14C]AMG uptake assay; type: cell-based
T2 sequence (P31639 whole entry): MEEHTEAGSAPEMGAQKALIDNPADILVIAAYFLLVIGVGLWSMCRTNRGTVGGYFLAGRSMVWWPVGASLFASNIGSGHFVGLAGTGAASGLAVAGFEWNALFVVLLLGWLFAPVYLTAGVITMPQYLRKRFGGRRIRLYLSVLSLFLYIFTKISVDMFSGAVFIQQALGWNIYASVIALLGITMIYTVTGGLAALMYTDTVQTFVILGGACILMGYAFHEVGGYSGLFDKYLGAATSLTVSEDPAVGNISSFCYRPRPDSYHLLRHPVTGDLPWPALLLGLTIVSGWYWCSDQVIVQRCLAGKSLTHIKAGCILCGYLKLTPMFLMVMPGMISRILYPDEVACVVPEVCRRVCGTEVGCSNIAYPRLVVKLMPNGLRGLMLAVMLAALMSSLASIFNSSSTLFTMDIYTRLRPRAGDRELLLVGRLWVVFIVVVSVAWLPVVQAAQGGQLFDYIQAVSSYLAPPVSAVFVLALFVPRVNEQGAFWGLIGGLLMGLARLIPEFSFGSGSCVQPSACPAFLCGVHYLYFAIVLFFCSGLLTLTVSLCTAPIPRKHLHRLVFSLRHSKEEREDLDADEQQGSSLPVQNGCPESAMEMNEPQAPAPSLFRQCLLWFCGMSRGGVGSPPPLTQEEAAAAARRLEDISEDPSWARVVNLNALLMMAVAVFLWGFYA

[4] = test system: Mus musculus; test: (§1) Apparent volume of distribution during terminal phase in db/db mouse at 10 mg/kg, po administered as single dose by LC-MS/MS system method; type: ADME, organism-based; design: dose 10 mg/kg, route oral; conditions: in vivo
[5] = AUC (infinity) in db/db mouse at 10 mg/kg, po administered as single dose by LC-MS/MS system method; type: ADME, organism-based; design: time infinity, dose 10 mg/kg, route oral; conditions: plasma
[6] = test system: Mus musculus; test: (§2) Half life in db/db mouse at 10 mg/kg, po administered as single dose by LC-MS/MS system method; type: ADME, organism-based; design: dose 10 mg/kg, route oral; conditions: in vivo
[7] = test system: Mus musculus; test: Hypoglycemic effect in db/db mouse assessed as reduction in glucose AUC (0 to 8 hrs) at 100 mg/kg, po administered as single dose by hexokinase method relative to untreated control; type: functional; design: scale not given: the % may be the effect or the level left
[8] = Tmax in db/db mouse at 10 mg/kg, po administered as single dose by LC-MS/MS system method; type: ADME, organism-based; design: dose 10 mg/kg, route oral; conditions: in vivo
[9] = test system: Mus musculus; test: (§3) Cmax in db/db mouse at 10 mg/kg, po administered as single dose by LC-MS/MS system method; type: ADME, organism-based; design: dose 10 mg/kg, route oral; conditions: in vivo
[10] = test system: Mus musculus; test: Hypoglycemic effect in db/db mouse assessed as reduction in glucose level at 30 mg/kg, po measured 8 hrs post dose administered as single dose by hexokinase method; type: functional, organism-based; design: dose 30 mg/kg
[11] = test system: Mus musculus; test: Hypoglycemic effect in db/db mouse assessed as reduction in glucose level at 30 mg/kg, po measured 4 hrs post dose administered as single dose by hexokinase method; type: functional, organism-based; design: dose 30 mg/kg
[12] = test system: Mus musculus; test: Hypoglycemic effect in db/db mouse assessed as reduction in glucose AUC (0 to 8 hrs) at 30 mg/kg, po administered as single dose by hexokinase method relative to untreated control; type: functional; design: scale not given: the % may be the effect or the level left
[13] = as §1; type: ADME, organism-based; design: dose 10 mg/kg, route oral; conditions: db/db, in vivo, read-out: Vz/F
[14] = as §2; type: ADME, organism-based; design: dose 10 mg/kg, route oral; conditions: db/db, in vivo
[15] = Apparent oral clearance in db/db mouse at 10 mg/kg, po administered as single dose by LC-MS/MS system method; type: ADME, organism-based; design: dose 10 mg/kg, route oral; conditions: in vivo
[16] = as §3; type: ADME, organism-based; design: dose 10 mg/kg, route oral; conditions: db/db, in vivo
[17] = target: CYP3A4 (Homo sapiens, UniProt P08684); test: in vitro; conditions: probe BFC
Description: Potency index, ratio of IC50 for CYP3A4 (unknown origin) using BFC substrate in which compound added to reaction mixture simultaneously with BFC substrate to IC50 for CYP3A4 using BFC substrate in which compound added to reaction mixture before addition of BFC substrate

[18] = target: T1, Cytochrome P450 3A4; test: Inhibition of CYP3A4 using BFC substrate by fluorometric assay; type: ADME; conditions: TDE = time-dependent effect

T1 sequence (P08684 whole entry): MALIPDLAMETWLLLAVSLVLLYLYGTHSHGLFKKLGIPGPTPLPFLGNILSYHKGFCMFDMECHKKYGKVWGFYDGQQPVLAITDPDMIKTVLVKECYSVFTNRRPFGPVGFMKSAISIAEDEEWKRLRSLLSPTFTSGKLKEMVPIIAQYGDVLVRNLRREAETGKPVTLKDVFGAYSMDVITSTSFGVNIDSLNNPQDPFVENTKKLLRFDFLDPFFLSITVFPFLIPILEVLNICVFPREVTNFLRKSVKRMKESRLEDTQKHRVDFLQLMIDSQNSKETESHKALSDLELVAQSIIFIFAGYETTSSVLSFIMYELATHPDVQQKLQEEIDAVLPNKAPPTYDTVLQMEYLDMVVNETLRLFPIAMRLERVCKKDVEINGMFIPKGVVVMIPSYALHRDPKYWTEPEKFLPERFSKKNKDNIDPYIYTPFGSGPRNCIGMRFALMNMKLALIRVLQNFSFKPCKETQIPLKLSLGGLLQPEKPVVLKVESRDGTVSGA
Sequence of CYP3A4 (P08684 whole entry): as above

Row | IC50 [1] | IC50 [2] | IC50 [3] | SMILES | other results
1 | > 50000 nM | > 50000 nM | 49 nM | CCc1ccc(Cc2cccc([C@@H]3C[C@H](CO)[C@@H](O)[C@H](O)[C@H]3O)c2)cc1 | 
2 |  |  | 52 nM | CCc1ccc(Cc2ccc(C)c([C@@H]3C[C@H](CO)[C@@H](O)[C@H](O)[C@H]3O)c2)cc1 | 
3 |  |  | 170 nM | CCc1ccc(Cc2ccc(C)c([C@]3(O)C[C@H](CO)[C@@H](O)[C@H](O)[C@H]3O)c2)cc1 | 
4 |  |  |  | COc1ccc(Cc2ccccc2O[C@@H]2C[C@H](CO)[C@@H](O)[C@H](O)[C@H]2O)cc1 | Vz/F [4]: 12.586 L/kg; AUC(0-inf) [5]: 3070 ng·h/mL; t1/2 [6]: 161 min; Activity [7]: 41.6%; Tmax [8]: 15 min; Cmax [9]: 1640 ng/mL
5 |  |  | 9.9 nM | CCOc1ccc(Cc2ccc(CC)cc2)cc1[C@]1(O)C[C@H](CO)[C@@H](O)[C@H](O)[C@H]1O | Activity [10]: inactive; Activity [11]: Active; Activity [12]: 39.1%
6 | > 50000 nM | 36600 nM | 19 nM | CCOc1ccc(Cc2ccc(CC)cc2)cc1[C@@H]1C[C@H](CO)[C@@H](O)[C@H](O)[C@H]1O | Activity [10]: Active; Activity [11]: Active; Vd/F [13]: 3.63 L/kg; AUC(0-inf) [5]: 6240 ng·h/mL; half-life [14]: 94.2 min; CL/F [15]: 26.7 mL/min/kg; Activity [12]: 42.6%; Tmax [8]: 15 min; Cmax [16]: 3680 ng/mL
7 | > 50000 nM | 29000 nM | 10 nM | CCc1ccc(Cc2cc([C@]3(O)C[C@H](CO)[C@@H](O)[C@H](O)[C@H]3O)c(OC)cc2OC)cc1 | 
8 |  |  | 8.3 nM | CCc1ccc(Cc2cc([C@@H]3C[C@H](CO)[C@@H](O)[C@H](O)[C@H]3O)ccc2OC)cc1 | 
9 |  |  |  | CCOC(=O)OC[C@H]1O[C@@H](Oc2ccccc2Cc2ccc(OC)cc2)[C@H](O)[C@@H](O)[C@@H]1O [SERGLIFLOZIN ETABONATE] | Activity [10]: inactive; Activity [11]: Active; Vz/F [4]: 3.315 L/kg; AUC(0-inf) [5]: 2970 ng·h/mL; t1/2 [6]: 49.2 min; Tmax [8]: 15 min; Cmax [9]: 3360 ng/mL
10 |  |  | 14 nM | CCc1ccc(Cc2ccc(OC)c([C@]3(O)C[C@H](CO)[C@@H](O)[C@H](O)[C@H]3O)c2)cc1 | 
11 | 40300 nM | 25700 nM | 8.5 nM | CCc1ccc(Cc2cc([C@@H]3C[C@H](CO)[C@@H](O)[C@H](O)[C@H]3O)c(OC)cc2OC)cc1 | IC50 shift [17]: 0.6
12 | > 50000 nM | > 50000 nM | 73 nM | COc1ccc(Cc2cccc([C@@H]3C[C@H](CO)[C@@H](O)[C@H](O)[C@H]3O)c2)cc1 | 
13 | > 50000 nM | > 50000 nM | 12 nM | CCc1ccc(Cc2ccc(OC)c([C@@H]3C[C@H](CO)[C@@H](O)[C@H](O)[C@H]3O)c2)cc1 | 
14 |  |  | 6.7 nM | Cc1ccc([C@@H]2O[C@H](CO)[C@@H](O)[C@H](O)[C@H]2O)cc1Cc1ccc(-c2ccc(F)cc2)s1 [CANAGLIFLOZIN ANHYDROUS] | 
15 |  |  | 100 nM | CCc1ccc(Cc2cc([C@]3(O)C[C@H](CO)[C@@H](O)[C@H](O)[C@H]3O)ccc2OC)cc1 | 
16 | 33000 nM | 76000 nM | 11 nM | OC[C@H]1C[C@@H](c2cccc(Cc3ccc(C4CC4)cc3)c2)[C@H](O)[C@@H](O)[C@@H]1O | inhibition (INH) [18]: tde; IC50 shift [17]: 2.3
